ChEMBL document CHEMBL1201862, “PubChem BioAssay data set” (2004)
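Grown in 96-well plates, cells were treated for 48 hours with each compound at five concentrations. Insufficient inhibition: endpoint recorded as highest concentration tested. Abbreviation: GI50, concentration required for 50% inhibition of growth.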 Active and inactive are the calls of the source. Cut-off read from the data, not from the text of the source: active = GI50 up to about 1.1 µM and inactive = higher.

Assays:
Assay in all cases: NCI tumour cell line growth inhibition, 48 h
RXF 393 = tested on: RXF 393
KM12 = tested on: KM12
OVCAR-3 = tested on: OVCAR-3
NCI-H226 = tested on: NCI-H226
PC-3 = tested on: PC-3
SF-268 = tested on: SF-268
SK-MEL-28 = tested on: SK-MEL-28
HCT-15 = tested on: HCT-15
DU-145 = tested on: DU-145
T47D = tested on: T47D
UACC-257 = tested on: UACC-257
NCI/ADR-RES = tested on: NCI/ADR-RES
SK-MEL-2 = tested on: SK-MEL-2
BT-549 = tested on: BT-549
SR = tested on: SR
SNB-75 = tested on: SNB-75
SF-295 = tested on: SF-295
RPMI-8226 = tested on: RPMI-8226
MOLT-4 = tested on: MOLT-4

SMILES	GI50 (RXF 393)	GI50 (KM12)	GI50 (OVCAR-3)	GI50 (NCI-H226)	GI50 (PC-3)	GI50 (SF-268)	GI50 (SK-MEL-28)	GI50 (HCT-15) [µM]	GI50 (DU-145)	GI50 (T47D)	GI50 (UACC-257)	GI50 (NCI/ADR-RES)	GI50 (SK-MEL-2)	GI50 (BT-549)	GI50 (SR)	GI50 (SNB-75)	GI50 (SF-295)	GI50 (RPMI-8226)	GI50 (MOLT-4)
Oc1cc2c3c(c1)CCCN3CCC2	> 10 µM (inactive)	> 10 µM (inactive)	> 10 µM (inactive)	> 10 µM (inactive)	> 10 µM (inactive)	> 10 µM (inactive)	> 10 µM (inactive)	> 10	> 10 µM (inactive)	> 10 µM (inactive)	> 10 µM (inactive)	> 10 µM (inactive)	> 10 µM (inactive)	> 10 µM (inactive)	> 10 µM (inactive)	> 10 µM (inactive)	> 10 µM (inactive)	> 10 µM (inactive)	> 10 µM (inactive)
CN1CCN(c2cc3[nH]c(-c4ccc(Cl)cc4)nc3cc2F)CC1	13.8 µM (inactive)	10.8 µM (inactive)	11.8 µM (inactive)	6.81 µM (inactive)	16.8 µM (inactive)	16.2 µM (inactive)	8.75 µM (inactive)	5.42	22.1 µM (inactive)	19.1 µM (inactive)	10.8 µM (inactive)	21 µM (inactive)	16.8 µM (inactive)	15.8 µM (inactive)	24.1 µM (inactive)	14.7 µM (inactive)	15.2 µM (inactive)	14.1 µM (inactive)	10.9 µM (inactive)
CCN1CCC(O)(/C=C/c2ccc(C)cc2C)C(C(=O)/C=C/c2ccc(C)cc2C)C1 (stereo not drawn)	3.21 µM (inactive)	2.33 µM (inactive)	2.53 µM (inactive)	2.77 µM (inactive)	2.5 µM (inactive)	2.4 µM (inactive)	4.7 µM (inactive)	1.93	4.59 µM (inactive)	2.39 µM (inactive)	4.99 µM (inactive)	2.46 µM (inactive)	4.26 µM (inactive)	2.79 µM (inactive)	2.37 µM (inactive)	5.79 µM (inactive)	2.08 µM (inactive)	4.76 µM (inactive)	1.28 µM (inactive)
CN(C)CCO/N=C1/C=C2CC[C@H]3[C@@H]4CC[C@H](O)[C@@]4(C)CC[C@@H]3[C@@]2(C)CC1	9.59 µM (inactive)	10.8 µM (inactive)	16.6 µM (inactive)	1.23 µM (inactive)	18.2 µM (inactive)	7.48 µM (inactive)	13.8 µM (inactive)	13.9	16.7 µM (inactive)	23.9 µM (inactive)	12.9 µM (inactive)	3.18 µM (inactive)	13.9 µM (inactive)	2.61 µM (inactive)	5.55 µM (inactive)	3.48 µM (inactive)	13.9 µM (inactive)	25.2 µM (inactive)	8.55 µM (inactive)
Cc1ccc(-c2cc(-c3ccc(Cl)cc3)nc(/N=C3\C(=O)N(CN4CCOCC4)c4ccc(Cl)cc43)n2)cc1	13.8 µM (inactive)	22.2 µM (inactive)	33.3 µM (inactive)	54.1 µM (inactive)	30 µM (inactive)	22.6 µM (inactive)	42.4 µM (inactive)	23.2	20.5 µM (inactive)	17.3 µM (inactive)	33.3 µM (inactive)	22.6 µM (inactive)	20.1 µM (inactive)	21.8 µM (inactive)	9.38 µM (inactive)	29.9 µM (inactive)	35.7 µM (inactive)	0.0139 µM (active)	1.1 µM (active)
C[C@H]1CCC/C=C/[C@@H]2C[C@H](OC3OC(CO)C(O)C(O)C3O)C[C@H]2[C@H](O)/C=C/C(=O)O1 (stereo partly drawn)	19 µM (inactive)	31.3 µM (inactive)	55.6 µM (inactive)	22.5 µM (inactive)	64.6 µM (inactive)	72.8 µM (inactive)	25.1 µM (inactive)	72.3	> 100 µM (inactive)	> 100 µM (inactive)	26.5 µM (inactive)	33.3 µM (inactive)	49.5 µM (inactive)	> 100 µM (inactive)	> 100 µM (inactive)	35 µM (inactive)	77.6 µM (inactive)	53.8 µM (inactive)	> 100 µM (inactive)
O=c1ccn(CC2(CO)CCC2)c(=O)[nH]1	> 100 µM (inactive)	> 100 µM (inactive)	> 100 µM (inactive)	> 100 µM (inactive)	> 100 µM (inactive)	> 100 µM (inactive)	> 100 µM (inactive)	> 100	> 100 µM (inactive)	> 100 µM (inactive)	> 100 µM (inactive)	> 100 µM (inactive)	> 100 µM (inactive)	> 100 µM (inactive)	> 100 µM (inactive)	> 100 µM (inactive)	> 100 µM (inactive)	> 100 µM (inactive)	> 100 µM (inactive)
